This note sets out measurements from US10175229B2, “Rapid method for measuring cytotoxicity in non-RI system” (NAGASAKI UNIVERSITY, priority 2014, dated 2019).

The assay has as its system Histiocytoma U937 cells. Nature of the assay: Spontaneous and maximum release of labeled compound, time-resolved fluorometric assay (Eu assay). The format is cell-based. The settings on record: for maximum release (B) / spontaneous release (A): U937 cells labeled with 25 μM compound for 15 min; for maximum release (B): lysed with 0.125% digitonin in 19% DMSO, time-resolved fluorescence with europium solution; for spontaneous release (A): supernatant added to europium solution, time-resolved fluorescence, wells without digitonin; for spontaneous release (%) (C) (100 × A/B): U937 cells, 25 μM compound, ratio of spontaneous to maximum release. The protocol:
Histiocytoma U937 cells were cultured in 30 mL of RPMI1640 medium under the conditions of 37° C., 5% CO2 overnight, the culture medium (30 mL) was placed in a 50 mL conical tube, and the cell number was counted. After centrifugation at 1700 rpm at 4° C. for 5 min, the supernatant was removed, and the cell pellets were resuspended in RPMI1640 medium at 1×10^6 cells/mL. To the cell suspension (1 mL) in a 15 mL conical tube was added 2.5 μL of a compound represented by the formula (I) or a salt thereof (10 mM stock solution) (final concentration: 25 μM), and the mixture was incubated under the conditions of 37° C., 5% CO2 for 15 min. The cells were washed 3 times with 5 mL of RPMI1640 medium, and resuspended in 5 mL of RPMI1640 medium. The cell suspension (2 mL) was placed in a 15 mL conical tube containing 6 mL of RPMI1640 medium to adjust the cell concentration to 5×10^3 cells/100 μL. The cell suspension (100 μL) was seeded in 6 wells of a 96 flat bottom plate. 100 μL of RPMI1640 medium was added to wells for determining the amount of spontaneous release, and 90 μL of RPMI1640 medium was added to wells for determining the amount of maximum release. The plates were centrifuged at 500 rpm, room temperature for 2 min and incubated under 37° C., 5% CO2 condition for 30 min. A newly-prepared 0.125% digitonin solution in 19% DMSO (mixed solution of 3 mg digitonin, 0.456 mL DMSO and 1.944 mL H2O) (10 μL) was added to the aforementioned wells for determining the amount of maximum release, mixed well and further incubated for 30 min. After incubation, the cell suspension was mixed well again, and centrifuged at 1700 rpm, room temperature for 2 min. After the centrifugation, the supernatant (25 μL) was carefully transferred into wells containing 250 μL of europium solution in a 96 flat bottom plate, and 200 μL of the solution thereof was placed in a 96-well flat bottom plate.
The plate was allowed to stand for 15 min, and the time-resolved fluorescence was measured by ARVO multiplate reader.

`CC(=O)OCOC(=O)c1cccc(-c2cccc(-c3cccc(C(=O)OCOC(C)=O)n3)n2)n1` [BATDA, bis(acetoxymethyl) 2,2′:6′,2″-terpyridine-6,6″-dicarboxylate, reference compound]: the “maximum release (B)” value was determined as 86785, the “spontaneous release (A)” value turned out to be 14795 and the “spontaneous release (%) (C) (100 × A/B)” value turned out to be 17%.
As for `CCCC(=O)OCOC(=O)c1cccc(-c2cc(OCCO)cc(-c3cccc(C(=O)OCOC(=O)CCC)n3)n2)n1` [Example 1, bis(butyryloxymethyl) 4′-(2-hydroxyethoxy)-2,2′:6′,2″-terpyridine-6,6″-dicarboxylate], the “maximum release (B)” value is 65576, the “spontaneous release (A)” value came out at 6347 and the “spontaneous release (%) (C) (100 × A/B)” value is given as 9.7%.
With `CCCNC(=O)COc1cc(-c2cccc(C(=O)OCOC(C)=O)n2)nc(-c2cccc(C(=O)OCOC(C)=O)n2)c1` [Example 2, bis(acetoxymethyl) 4′-(2-oxo-2-(propylamino)ethoxy)-2,2′:6′,2″-terpyridine-6,6″-dicarboxylate], the “maximum release (B)” value is 60521, the “spontaneous release (A)” value came out at 7085 and the “spontaneous release (%) (C) (100 × A/B)” value is on record as 11.7%.
For `CC(=O)OCOC(=O)c1cccc(-c2cc(OCCO)cc(-c3cccc(C(=O)OCOC(C)=O)n3)n2)n1` [Example 3, bis(acetoxymethyl) 4′-(2-hydroxyethoxy)-2,2′:6′,2″-terpyridine-6,6″-dicarboxylate], the “maximum release (B)” value was 69372, the “spontaneous release (A)” value is 4890 and the “spontaneous release (%) (C) (100 × A/B)” value is 7%.
`CCCC(=O)OCOC(=O)c1cccc(-c2cc(OCC=O)cc(-c3cccc(C(=O)OCOC(=O)CCC)n3)n2)n1` [Example 4, bis(butyryloxymethyl) 4′-(2-oxyethoxy)-2,2′:6′,2″-terpyridine-6,6″-dicarboxylate]: the “maximum release (B)” value came to 43224, the “spontaneous release (A)” value was determined as 3590 and the “spontaneous release (%) (C) (100 × A/B)” value was 8.3%.
Consider `CCC(=O)OCOC(=O)c1cccc(-c2cc(OCCO)cc(-c3cccc(C(=O)OCOC(=O)CC)n3)n2)n1` [Example 5, bis(propionyloxymethyl) 4′-(2-hydroxyethoxy)-2,2′:6′,2″-terpyridine-6,6″-dicarboxylate], for which the “maximum release (B)” value stood at 78831, the “spontaneous release (A)” value was 6991 and the “spontaneous release (%) (C) (100 × A/B)” value is on record as 8.9%.
For `CCCC(=O)OCOC(=O)c1cccc(-c2cc(OCCCO)cc(-c3cccc(C(=O)OCOC(=O)CCC)n3)n2)n1` [Example 6, bis(butyryloxymethyl) 4′-(3-hydroxypropoxy)-2,2′:6′,2″-terpyridine-6,6″-dicarboxylate], in that order: 103235, 9538 and 9.2%.
In the case of `CCCC(=O)OCOC(=O)c1cccc(-c2cc(OCCOCCO)cc(-c3cccc(C(=O)OCOC(=O)CCC)n3)n2)n1` [Example 7, bis(butyryloxymethyl) 4′-(2-(2-hydroxyethoxy)ethoxy)-2,2′:6′,2″-terpyridine-6,6″-dicarboxylate], the “maximum release (B)” value amounted to 63594, the “spontaneous release (A)” value is recorded as 6133 and the “spontaneous release (%) (C) (100 × A/B)” value was determined as 9.6%.
Take `CC(=O)OCOC(=O)c1cccc(-c2cc(CO)cc(-c3cccc(C(=O)OCOC(C)=O)n3)n2)n1` [Example 9, bis(acetoxymethyl) 4′-(hydroxymethyl)-2,2′:6′,2″-terpyridine-6,6″-dicarboxylate]: the “maximum release (B)” value stood at 127955, the “spontaneous release (A)” value came out at 21343 and the “spontaneous release (%) (C) (100 × A/B)” value came out at 16.7%.
